Measured values published in ChEMBL document CHEMBL1147275, “An Antibiotic from Trichoderma Koningii Active Against Soilborne Plant Pathogens” (1989).

Columns and labels:
Assay type in all cases: functional
Gaeumannomyces tritici [1] = experiment: Antimicrobial activity of agar culture isolated compound against Gaeumannomyces graminis var. tritici assessed as colony area after 2 days
Gaeumannomyces tritici [2] = experiment: Antimicrobial activity of broth culture isolated compound against Gaeumannomyces graminis var. tritici assessed as colony area after 4 days
Phytophthora cinnamomi [3] = experiment: Antimicrobial activity of agar culture isolated compound against Phytophthora cinnamomi assessed as colony area after 3 days
Gaeumannomyces tritici [4] = experiment: Antimicrobial activity of broth culture isolated compound against Gaeumannomyces graminis var. tritici assessed as colony area after 2 days
Rhizoctonia solani [5] = experiment: Antimicrobial activity of agar culture isolated compound against Rhizoctonia solani assessed as colony area after 2 days
Fusarium oxysporum [6] = experiment: Antimicrobial activity of agar culture isolated compound against Fusarium oxysporum assessed as colony area after 1 day
Gaeumannomyces tritici [7] = experiment: Antimicrobial activity of agar culture isolated compound against Gaeumannomyces graminis var. tritici assessed as colony area after 3 days
Rhizoctonia solani [8] = experiment: Antimicrobial activity of agar culture isolated compound against Rhizoctonia solani assessed as colony area after 3 days
Fusarium oxysporum [9] = experiment: Antimicrobial activity of agar culture isolated compound against Fusarium oxysporum assessed as colony area after 3 days
Bipolaris sorokiniana [10] = experiment: Antimicrobial activity of agar culture isolated compound against Bipolaris sorokiniana assessed as colony area after 3 days
Rhizoctonia solani [11] = experiment: Antimicrobial activity of agar culture isolated compound against Rhizoctonia solani assessed as colony area after 1 day
Bipolaris sorokiniana [12] = experiment: Antimicrobial activity of agar culture isolated compound against Bipolaris sorokiniana assessed as colony area after 1 day
[13] = tested on: Globisporangium middletonii; experiment: Antimicrobial activity of agar culture isolated compound against Pythium middletonii assessed as colony area after 3 days
Gaeumannomyces tritici [14] = experiment: Antimicrobial activity of broth culture isolated compound against Gaeumannomyces graminis var. tritici assessed as colony area after 5 days
Phytophthora cinnamomi [15] = experiment: Antimicrobial activity of agar culture isolated compound against Phytophthora cinnamomi assessed as colony area after 2 days
[16] = tested on: Globisporangium middletonii; experiment: Antimicrobial activity of agar culture isolated compound against Pythium middletonii assessed as colony area after 1 day
[17] = tested on: Globisporangium middletonii; experiment: Antimicrobial activity of agar culture isolated compound against Pythium middletonii assessed as colony area after 2 days
Bipolaris sorokiniana [18] = experiment: Antimicrobial activity of agar culture isolated compound against Bipolaris sorokiniana assessed as colony area after 2 days
Fusarium oxysporum [19] = experiment: Antimicrobial activity of agar culture isolated compound against Fusarium oxysporum assessed as colony area after 2 days
Gaeumannomyces tritici [20] = experiment: Antimicrobial activity of broth culture isolated compound against Gaeumannomyces graminis var. tritici assessed as colony area after 3 days
Gaeumannomyces tritici [21] = experiment: Antimicrobial activity of agar culture isolated compound against Gaeumannomyces graminis var. tritici assessed as colony area after 1 day
Gaeumannomyces tritici [22] = experiment: Antimicrobial activity of broth culture isolated compound against Gaeumannomyces graminis var. tritici assessed as colony area after 6 days
Phytophthora cinnamomi [23] = experiment: Antimicrobial activity of agar culture isolated compound against Phytophthora cinnamomi assessed as colony area after 1 day

`CCCCCC[C@H](O)[C@@H]1C[C@@H](O)C2=C(O1)[C@H](O)CCC2=O` gave an Activity (Gaeumannomyces tritici [1]) of 42 mm2, an Activity (Gaeumannomyces tritici [2]) of 63 mm2 and an Activity (Phytophthora cinnamomi [3]) of 92 mm2. For the same compound, the Activity (Gaeumannomyces tritici [4]) was 32 mm2, the Activity (Rhizoctonia solani [5]) was 42 mm2 and the Activity (Fusarium oxysporum [6]) was 46 mm2. The Activity (Gaeumannomyces tritici [7]) was 44 mm2, the Activity (Rhizoctonia solani [8]) was 46 mm2 and the Activity (Fusarium oxysporum [9]) was 170 mm2. For the same compound, the Activity (Bipolaris sorokiniana [10]) was 45 mm2, the Activity (Rhizoctonia solani [11]) was 38 mm2 and the Activity (Bipolaris sorokiniana [12]) was 44 mm2. For the same compound, the Activity [13] was 232 mm2, the Activity (Gaeumannomyces tritici [14]) was 198 mm2 and the Activity (Phytophthora cinnamomi [15]) was 38 mm2. It also gave an Activity [16] of 38 mm2, an Activity [17] of 184 mm2 and an Activity (Bipolaris sorokiniana [18]) of 46 mm2. The Activity (Fusarium oxysporum [19]) was 103 mm2, the Activity (Gaeumannomyces tritici [20]) was 33 mm2 and the Activity (Gaeumannomyces tritici [21]) was 40 mm2. The Activity (Gaeumannomyces tritici [22]) was 549 mm2 and the Activity (Phytophthora cinnamomi [23]) was 37 mm2.
